In US20060287533A1, “SOLVENT CONTAINING 1,2,5-THIADIAZOLE COMPOUND, AND METHOD FOR EXTRACTING AN ORGANIC COMPOUND USING THE SOLVENT” (Waseda University, priority 2004, published 2006):

Assays:
Assay type in all cases: physicochemical
[1] = Separatory funnel phase separation of 1,2,5-thiadiazole and water; settings: 10 ml 1,2,5-thiadiazole and 10 ml water, shaken vigorously, allowed to stand
Procedure: A 10 ml of 1,2,5-thiadiazole and 10 ml of water were put into a separatory funnel, and the system was shaken vigorously, to be allowed to stand.

[2] = Compatibility of 1,2,5-thiadiazole with other solvents; parameters: key: ◯: Circle: fully compatible to give a uniform mixture; Triangle: giving a white turbidity; X-mark: being divided into two phases; settings: 1,2,5-thiadiazole mixed with the listed solvent at volume ratio 1/1 (2 ml), room temperature, visual inspection
Procedure: For 1,2,5-thiadiazole of the present invention, its compatibility with other solvents was studied. The test consisted of mixing 1,2,5-thiadiazole with another solvent at a volume ratio of 1/1 (2 ml), allowing the system to stand at room temperature, and visually inspecting the compatibility of the former with the latter.
Circle: fully compatible to give a uniform mixture
Triangle: giving a white turbidity
X-mark: being divided into two phases

[3] = Extracting activity: partition of compound between water phase and organic phase (TLC); settings: for Ratio of content of compound in water phase against organic phase (Example 4): 2 mg compound in 100 μl 1,2,5-thiadiazole + 100 μl distilled water; for Ratio of content of compound in water phase against organic phase (Comp. Ex. 3): 2 mg compound in 100 μl chloroform + 100 μl distilled water; for Ratio of content of compound in water phase against organic phase (Comp. Ex. 4): 2 mg compound in 100 μl diethylether + 100 μl distilled water
Procedure: The extracting activity of 1,2,5-thiadiazole of the present invention was studied. A 2 mg of each of compounds 1 to 20 was dissolved in 100 μl of 1,2,5-thiadiazole, to which 100 μl of distilled water was added, and the system was subjected to separation operation. The ratio of the content of the compound in water phase against the counterpart in organic phase was determined using TLC, and the results are shown in Table 3.
The same procedure as in Example 4 was repeated except that 1,2,5-thiadiazole was replaced with chloroform, to determine the comparative extracting activity of chloroform.
The same procedure as in Example 4 was repeated except that 1,2,5-thiadiazole was replaced with diethylether, to determine the comparative extracting activity of diethylether.

[4] = Dissolving capability: amount of solvent needed to completely dissolve 20 mg of compound; settings: 20 mg compound, room temperature; for Addition amount of solvent until compound completely dissolved (Example 3): solvent 1,2,5-thiadiazole, stirring; for Amount of solvent required for completely dissolving the compound (Comp. Ex. 1): solvent chloroform; for Amount of solvent required for completely dissolving the compound (Comp. Ex. 2): solvent diethylether
Procedure: The dissolving capability of 1,2,5-thiadiazole of the present invention was studied. A 20 mg of each of compounds 1 to 20 was transferred into a sample vial, to which 1,2,5-thiadiazole was added at room temperature with stirring. The addition was continued until the compound was completely dissolved, and the addition amount of the solvent was determined.
The same procedure as in Example 3 was repeated except that 1,2,5-thiadiazole was replaced with chloroform. The amount of the solvent required for completely dissolving the compound was determined.
The same procedure as in Example 3 was repeated except that 1,2,5-thiadiazole was replaced with diethylether. The amount of the solvent required for completely dissolving the compound was determined.

Compound | Ratio of content of compound in water phase against organic phase (Example 4) [3] | Ratio of content of compound in water phase against organic phase (Comp. Ex. 3) [3] | Ratio of content of compound in water phase against organic phase (Comp. Ex. 4) [3] | Addition amount of solvent until compound completely dissolved (Example 3) [4] [µL] | Amount of solvent required for completely dissolving the compound (Comp. Ex. 1) [4] | Amount of solvent required for completely dissolving the compound (Comp. Ex. 2) [4] | Phase separation from water [1] | Compatibility [2]
1,2,5-thiadiazole |  |  |  |  |  |  | clearly divided into two phases | 
CC(C)=O [Acetone] |  |  |  |  |  |  |  | ◯
CC#N [Acetonitrile] |  |  |  |  |  |  |  | ◯
c1ccccc1 [Benzene] |  |  |  |  |  |  |  | ◯
O=C1Cc2ccccc2N1 [Compound 1] | 1/100 | 1/10 | 1/5 | 100 | 400 µL | 2000 µL |  | 
CO[C@H]1OC(COCc2ccccc2)[C@H](N=[N+]=[N-])CC1NS(=O)(=O)c1ccc(C)cc1 (stereo partly drawn) [Compound 2] | 0/100 | 1/50 | 1/4 | 140 | 240 µL | 1600 µL |  | 
O=C1C(OCc2ccccc2)=C[C@@H](CO)[C@@H]1CO [Compound 3] | 1/5 | 4/5 | Hardly soluble | 160 | 200 µL | Insoluble |  | 
COCOc1cc(OCOC)c2c(c1)C(S(=O)(=O)c1ccccc1)OC2=O (stereo not drawn) [Compound 4] | 0/100 | Hardly soluble | Hardly soluble | 1000 | Hardly soluble | Hardly soluble |  | 
O=C(O)CNC(=O)OCc1ccccc1 [Compound 5] | 0/100 | 1/5 | 0/100 | 1000 | 2000 µL | 2000 µL |  | 
Cc1ccc(S(=O)(=O)OCCC2(CCS(=O)(=O)c3ccccc3)OCCO2)cc1 [Compound 6] | 0/100 | 1/5 | Hardly soluble | 1000 | 2000 µL | Hardly soluble |  | 
CC(=O)Oc1ccc(OC(C)=O)c(OC(C)=O)c1 [Compound 7] | 0/100 | 0/100 | 0/100 | 100 | 200 µL | 2000 µL |  | 
CC(C)(C)[Si](C)(C)OCC1=CC2(OCCO2)C(O)C(O)C1=O (stereo not drawn) [Compound 11] |  |  |  | 200 | 400 µL | Hardly soluble |  | 
CN(C)C=O [Dimethylformamide] |  |  |  |  |  |  |  | ◯
CCO [Ethanol] |  |  |  |  |  |  |  | ◯
CCOC(C)=O [Ethyl acetate] |  |  |  |  |  |  |  | ◯
CO [Methanol] |  |  |  |  |  |  |  | ◯
Cc1ccccc1 [Toluene] |  |  |  |  |  |  |  | ◯
O [Water] |  |  |  |  |  |  |  | X
CCCCCC [n-Hexane] |  |  |  |  |  |  |  | ◯
Xylene |  |  |  |  |  |  |  | ◯

The next lines start with results.

Ratio of content of compound in water phase against organic phase (Example 4) [3] | Ratio of content of compound in water phase against organic phase (Comp. Ex. 3) [3] | Ratio of content of compound in water phase against organic phase (Comp. Ex. 4) [3] | Addition amount of solvent until compound completely dissolved (Example 3) [4] [µL] | Amount of solvent required for completely dissolving the compound (Comp. Ex. 1) [4] | Amount of solvent required for completely dissolving the compound (Comp. Ex. 2) [4] | Compound | Phase separation from water [1] | Compatibility [2]
1/15 | 1/15 | 1/15 | 200 | 240 µL | 1600 µL | CO[C@H]1OC2COC(c3ccccc3)O[C@H]2C(O)C1NS(=O)(=O)c1ccc(C)cc1 (stereo partly drawn) [Compound 8] |  | 
0/100 | 0/100 | 0/100 | 20 | 200 µL | 6000 µL | Cc1ccc(S(=O)(=O)O[C@@H]2C(C)O[C@@H](OCc3ccccc3)C3OC(=O)OC32)cc1 (stereo partly drawn) [Compound 9] |  | 
0/100 | 1/100 | Hardly soluble | 200 | 400 µL | Hardly soluble | COCOc1cc(OC)c(OC)c2c1C(=O)OC2 [Compound 10] |  | 
 |  |  | 200 | 200 µL | 200 µL | CC/C=C(\C)CN1C(=O)OC[C@H]1C(C)C [Compound 12] |  | 
 |  |  | 100 | 100 µL | 2000 µL | O=C1C=CC2(C=C1CO)OCCO2 [Compound 14] |  | 
 |  |  | 100 | 100 µL | 2400 µL | CC1(C)OCc2cc(OCCO)ccc2O1 [Compound 15] |  | 
 |  |  | 100 | 100 µL | 200 µL | COCCCCC(O)C(O)C(=O)OC (stereo not drawn) [Compound 16] |  | 
 |  |  | 40 | 40 µL | 4000 µL | Cc1oc2ccccc2c(=O)c1C [Compound 17] |  | 
 |  |  | 200 | 200 µL | 200 µL | CC(=O)OCC1OCCC(OC(C)=O)[C@@H]1OC(C)=O (stereo partly drawn) [Compound 18] |  | 
 |  |  | 100 | 100 µL | 4800 µL | CCCCCC(=O)CC(=O)NC1CCOC1=O (stereo not drawn) [Compound 19] |  | 
